Results published in article PMC9146500, “New Quinoline–Urea–Benzothiazole Hybrids as Promising Antitubercular Agents: Synthesis, In Vitro Antitubercular Activity, Cytotoxicity Studies, and In Silico ADME Profiling” (Pharmaceuticals, 2022).
Values after ≈ are worked out from the molar mass of the structure shown. Values joined by “and” are separate entries in the source; they are usually repeats but may differ in a detail not shown here. Equal entries are not always repeated. Where two headings read alike, the source gives them in different places.

How the values were obtained:
[1] = system: Mycobacterium tuberculosis H37Rv pMSp12::GFP; assay: microbe, parasite or virus in culture; assay type: cell-based; details: Mtb H37Rv, protein-rich media, 7 days, read-out: MIC90 7H9/ADC/GLU/Tw 7 Days
MTT cytotoxicity assay = details: human; for IC20 at 24 h: IC20, HepG2, 24 h, MTT, concentration at which cells retain 80% viability, extrapolated from the dose–response curve
[2] = system: Mycobacterium tuberculosis H37Rv pMSp12::GFP; assay: microbe, parasite or virus in culture; assay type: cell-based; details: Mtb H37Rv
[3] = Mycobacterium tuberculosis, H37RV, 168 h
[4] = Mycobacterium tuberculosis, H37RV, 168 h, protein-poor media, 7 days, read-out: MIC90 7H9/CAS/GLU/Tx 7 Days
[5] = both media (CAS and ADC) or medium not given
[6] = protein-poor media, 7 days, read-out: MIC90 7H9/CAS/GLU/Tx 7 Days
[7] = Mycobacterium tuberculosis, 168 h, protein-poor media, 7 days, read-out: MIC90 7H9/CAS/GLU/Tx 7 Days
[8] = Mycobacterium tuberculosis, H37RV, both media (CAS and ADC) or medium not given, read-out: MIC90

Structure (SMILES) | MIC90 [1, 3] | melting point | viability at 24 h (MTT cytotoxicity assay) | IC20 at 24 h (MTT cytotoxicity assay) | MIC90 [2, 4] | MIC90 [2, 5] | MIC90 [1] | MIC90 [2, 6] | MIC [2, 7] | MIC90 [2, 8] | MIC ([1]; Mycobacterium tuberculosis, 168 h)
Cc1ccc2nc(NC(=O)NCCCNc3ccnc4cc(Cl)ccc34)sc2c1 [Compound 6k, 1-(3-((7-Chloroquinolin-4-yl)amino)propyl)-3-(6-methylbenzo[d]thiazol-2-yl)urea] | 62.3 µM (≈ 26.5 µg/mL) | 234 to 239 °C | 93% | 42.7 µM | 31.2 µM (≈ 13.3 µg/mL) | – | – | – | – | – | –
O=C(NNc1ccnc2cc(Cl)ccc12)Nc1nc2ccc([N+](=O)[O-])cc2s1 [Compound 6d, 2-(7-Chloroquinolin-4-yl)-N-(6-nitrobenzo[d]thiazol-2-yl)hydrazine-1-carboxamide] | > 125 µM | – | – | – | > 125 µM | – | – | – | – | – | –
O=C(NNc1ccnc2cc(Cl)ccc12)Nc1nc2ccc(C(F)(F)F)cc2s1 [Compound 6b, 2-(7-Chloroquinolin-4-yl)-N-(6-(trifluoromethyl)benzo[d]thiazol-2-yl)hydrazine-1-carboxamide] | 6.85 µM (≈ 3 µg/mL) | – | – | – | 4.94 µM (≈ 2.16 µg/mL) | excellent activity in both media | – | – | – | – | –
NC(N)=O [Urea] | – | – | – | – | – | – | >125 µM | >125 µM | – | – | –
Cc1ccc2nc(NC(=O)NC(C)CNc3ccnc4cc(Cl)ccc34)sc2c1 (stereo not shown) [Compound 6x, 1-(1-((7-Chloroquinolin-4-yl)amino)propan-2-yl)-3-(6-methylbenzo[d]thiazol-2-yl)urea] | 10.3 µM (≈ 4.41 µg/mL) | 229 to 231 °C | 96% | 16.2 µM | 7.22 µM (≈ 3.07 µg/mL) | – | – | – | – | – | –
O=C(NCCCNc1ccnc2cc(Cl)ccc12)Nc1nc2ccc(Cl)cc2s1 [Compound 6j, 1-(6-Chlorobenzo[d]thiazol-2-yl)-3-(3-((7-chloroquinolin-4-yl)amino)propyl)urea] | 11.7 µM (≈ 5.24 µg/mL) | 286 to 288 °C | 86% | 26.3 µM | 4.39 µM (≈ 1.96 µg/mL) | – | – | 4.389 µM (≈ 1.96 µg/mL) | – | – | –
O=C(NCCCCCCNc1ccnc2cc(Cl)ccc12)Nc1nc2ccc(Br)cc2s1 [Compound 6s, 1-(6-Bromobenzo[d]thiazol-2-yl)-3-(6-((7-chloroquinolin-4-yl)amino)hexyl)urea] | 21 µM (≈ 11.2 µg/mL) | 192 to 194 °C | 76% | 7.02 µM | 8.76 µM (≈ 4.67 µg/mL) | – | – | – | – | – | –
O=C(NCCCNc1ccnc2cc(Cl)ccc12)Nc1nc2ccccc2s1 [Compound 6l, 1-(3-((7-Chloroquinolin-4-yl)amino)propyl)-3-(benzo[d]thiazol-2-yl)urea] | 9.45 µM (≈ 3.89 µg/mL) | – | 100% | 105 µM | 9.63 µM (≈ 3.97 µg/mL) | – | 9.447 µM (≈ 3.89 µg/mL) | – | – | – | –
CC(CNc1ccnc2cc(Cl)ccc12)NC(=O)Nc1nc2ccc(Cl)cc2s1 (stereo not shown) [Compound 6y, 1-(1-((7-Chloroquinolin-4-yl)amino)propan-2-yl)-3-(6-chlorobenzo[d]thiazol-2-yl)urea] | 8.46 µM (≈ 3.77 µg/mL) | 301 to 304 °C | 78% | 2.22 µM | 2.33 µM (≈ 1.04 µg/mL) | – | – | – | – | – | –
O=C(NCCCCCCNc1ccnc2cc(Cl)ccc12)Nc1nc2ccc(Cl)cc2s1 [Compound 6r, 1-(6-Chlorobenzo[d]thiazol-2-yl)-3-(6-((7-chloroquinolin-4-yl)amino)hexyl)urea] | 14.6 µM (≈ 7.14 µg/mL) | 239 to 241 °C | 72% | 5.47 µM | 7.6 µM (≈ 3.71 µg/mL) | – | – | – | – | – | –
CO[C@H]1/C=C/O[C@@]2(C)Oc3c(C)c(O)c4c(O)c(c(/C=N/N5CCN(C)CC5)c(O)c4c3C2=O)NC(=O)/C(C)=C\C=C\[C@H](C)[C@H](O)[C@@H](C)[C@@H](O)[C@@H](C)[C@H](OC(C)=O)[C@@H]1C [RIF, Rifampicin, reference compound] | 0.001 µM (≈ 0.000823 µg/mL) | – | – | – | 0.03 µM (≈ 0.0247 µg/mL) | – | – | – | – | – | –
O=C(NCCCCNc1ccnc2cc(Cl)ccc12)Nc1nc2ccc(Cl)cc2s1 [Compound 6o, 1-(6-Chlorobenzo[d]thiazol-2-yl)-3-(4-((7-chloroquinolin-4-yl)amino)butyl)urea] | 23.5 µM (≈ 10.8 µg/mL) | 189 to 191 °C and 189.8 to 191.3 °C | 30% | 2.13 µM | 7.46 µM (≈ 3.43 µg/mL) | – | – | – | 7.43 µM (≈ 3.42 µg/mL) | – | –
O=C(NNc1ccnc2cc(Cl)ccc12)Nc1nc2ccccc2s1 [Compound 6a, N-(Benzo[d]thiazol-2yl)-2-(7-chloroquinolin-4-yl)hydrazine-1-carboxamide] | > 125 µM | – | 75% | 15.1 µM | 21 µM (≈ 7.77 µg/mL) | – | – | 21.001 µM (≈ 7.77 µg/mL) | – | – | –
O=C(NCCNc1ccnc2cc(Cl)ccc12)Nc1nc2ccc(Cl)cc2s1 [Compound 6f, 1-(6-Chlorobenzo[d]thiazol-2-yl)-3-(2-((7-chloroquinolin-4-yl)amino)ethyl)urea] | > 125 µM | 244 to 245 °C | – | – | 125 µM (≈ 54 µg/mL) | – | – | – | – | – | –
O=C(NCCNc1ccnc2cc(Cl)ccc12)Nc1nc2ccc(C(F)(F)F)cc2s1 [Compound 6e, 1-(2-((7-Chloroquinolin-4-yl)amino)ethyl)-3-(6-(trifluoromethyl)benzo[d]thiazol-2-yl)urea] | – | 249 to 251 °C | – | – | – | – | – | – | – | – | –
O=C(NCCCNc1ccnc2cc(Cl)ccc12)Nc1nc2ccc(F)cc2s1 [Compound 6n, 1-(6-Fluorobenzo[d]thiazol-2-yl)-3-(3-((7-chloroquinolin-4-yl)amino)propyl)urea] | 125 µM (≈ 53.7 µg/mL) | 241 to 243 °C | – | – | > 125 µM | devoid of any activity | – | – | – | – | –
CC(CNc1ccnc2cc(Cl)ccc12)NC(=O)Nc1nc2ccc(F)cc2s1 (stereo not shown) [Compound 6v, 1-(1-((7-Chloroquinolin-4-yl)amino)propan-2-yl)-3-(6-fluorobenzo[d]thiazol-2-yl)urea] | > 125 µM | 228 to 230 °C | – | – | > 125 µM | – | – | – | – | – | –
O=C(NCCCNc1ccnc2cc(Cl)ccc12)Nc1nc2ccc(Br)cc2s1 [Compound 6m, 1-(6-Bromobenzo[d]thiazol-2-yl)-3-(3-((7-chloroquinolin-4-yl)amino)propyl)urea] | 16.9 µM (≈ 8.28 µg/mL) | 254 to 257 °C | 100% | 25.1 µM | 15.9 µM (≈ 7.82 µg/mL) | – | – | – | – | – | –
O=C(NCCCCCCNc1ccnc2cc(Cl)ccc12)Nc1nc2ccc(F)cc2s1 [Compound 6t, 1-(6-((7-Chloroquinolin-4-yl)amino)hexyl)-3-(6-fluorobenzo[d]thiazol-2-yl)urea] | 31.2 µM (≈ 14.7 µg/mL) | 256 to 259 °C | 92% | 12.9 µM | 6.97 µM (≈ 3.29 µg/mL) | – | – | – | – | 6.97 to 31.2 µM (≈ 3.29 to 14.7 µg/mL) | –
CC(CNc1ccnc2cc(Cl)ccc12)NC(=O)Nc1nc2ccc(C(F)(F)F)cc2s1 (stereo not shown) [Compound 6u, 1-(1-((7-Chloroquinolin-4-yl)amino)propan-2-yl)-3-(6-(trifluoromethyl)benzo[d]thiazol-2-yl)urea] | 5.73 µM (≈ 2.75 µg/mL) | – | 100% | 6.01 µM | 0.97 µM (≈ 0.466 µg/mL) | – | 5.732 µM (≈ 2.75 µg/mL) | 0.968 µM (≈ 0.465 µg/mL) | – | – | –
O=C(NNc1ccnc2cc(Cl)ccc12)Nc1nc2ccc(F)cc2s1 [Compound 6c, 2-(7-Chloroquinolin-4-yl)-N-(6-fluorobenzo[d]thiazol-2-yl)hydrazine-1-carboxamide] | > 125 µM | – | – | – | > 125 µM | – | – | – | – | – | –
O=C(NCCNc1ccnc2cc(Cl)ccc12)Nc1nc2ccc(F)cc2s1 [Compound 6h, 1-(6-Fluorobenzo[d]thiazol-2-yl)-3-(2-((7-chloroquinolin-4-yl)amino)ethyl)urea] | – | – | – | – | – | – | – | – | 62.5 µM (≈ 26 µg/mL) | 62.5 µM (≈ 26 µg/mL) | 62.5 µM (≈ 26 µg/mL)
O=C(Nc1nc2ccc(F)cc2s1)n1ccnc1 [Compound 5b] | > 125 µM | – | – | – | > 125 µM | – | – | – | – | – | –
NCCCCCCNc1ccnc2cc(Cl)ccc12 [Compound 2e] | > 125 µM | – | – | – | > 125 µM | – | – | – | – | – | –
O=C(NCCCCNc1ccnc2cc(Cl)ccc12)Nc1nc2ccc(F)cc2s1 [Compound 6q, 1-(6-Fluorobenzo[d]thiazol-2-yl)-3-(4-((7-chloroquinolin-4-yl)amino)butyl)urea] | > 125 µM | 256 to 259 °C | – | – | > 125 µM | not active at all | – | – | – | – | –
